Results reported in patent EP4458353A1, “ANTICARIOGENIC SYNERGETIC COMPOSITION FOR ORAL CARE” (SkyLab AG, priority 2023, dated 2024).
Like-named read-outs stand apart in the source and are kept apart here.

Key:
Assay type in all cases: cell-based
Streptococcus sobrinus [1] = assay: Minimum biofilm inhibitory concentration (MBIC), crystal violet staining; conditions: S. sobrinus; for MBIC in indicvdual replicates Replicate 1 / MBIC in indicvdual replicates Replicate 2 / MBIC in indicvdual replicates Replicate 3 / MBIC in indicvdual replicates Replicate 4 / MBIC in indicvdual replicates Replicate 5: 24 h incubation; for MBIC Median value: median of 5 replicates
Protocol: (§1) Group of examples No 4 - 6. Anti-biofilm activity of the substance or of the composition of substances was assessed from minimum biofilm inhibitory concentration (MBIC) and from the rate of biofilm formation on hydroxyapatite disks.
(§2) Reference strains Streptococcus mutans and S. Sobrinus were used as the bacterial models.
(§3) Example No 4. MBIC as the measure of the substance effect on the bacterial biofilm is equal to minimum concentration inhibiting the biofilm formation or disruption of already formed biofilm during 24 hour incubation.
(§4) MBIC of individual components of the composition, specifically, naringenin, guava leaf CO2 extract, and enzymes lysozyme and labiase can be determined according to the procedure: • 1) All stages of nutritive medium preparation, preparation and incubation of bacterial cultures in 96-well microtiter plates with the test composition of the substances added into nutritive medium were as described in Example 1. • 2) All controls for the culture growth, for purity of nutritive medium and for solvents were as described in Example 1. • 3) Incubate the plates at 37 °C for 24 ± 4 h without the use the orbital shaker. • 4) Stain the bacterial biofilm accumulated on bottom of the plate wells with crystal violet. For this purpose remove the planktonic culture from the plate wells after 24 h incubation and wash with two portions of phosphate-buffered saline (PBS, pH 7.4) to remove remaining planktonic culture. Then dry the plate for 12-15 hours. Add 100 µL of 0.5% crystal violet solution (Sigma-Aldrich, USA), dissolved in 96% ethanol followed by incubation for 20 minutes. After removal of crystal violet solution from the wells wash the plate with 3-4 portions of PBS. After drying add […] of 96% ethanol into the wells to elute the crystal violet, which has bound to the biofilm. • 5) Shake the plate on the orbital shaker for 2 minutes at 37 °C and then measure optical density (OD) at the wavelength of 550nm using multimodal microplate reader against the blank (the well, where the sterile medium LB was incubated and then exposed to all staining manipulations). Since the serial dilution method with 2-fold dilution steps is used for MBIC determination, the difference between the adjacent dilution is considered as non-significant, and MBIC is defined as the median value calculated for 5 independent biological replicates of the experiment. • 6) The following concentrations were tested: naringenin and guava leaf extract at concentrations 1.6, 0.8, 0.4, 0.2, 0.1, 0.05 mg/mL; lysozyme and labiase at concentrations 4.0, 2.0, 1.0, 0.5, 0.25, 0.125 mg/mL. Well-known antibacterial components were used as controls: chlorohexidine bigluconate at concentrations 64, 32, 16, 8, 4 µg/mL; zinc gluconate at concetrations 5.0, 2.5, 1.25, 0.6, 0.3, 0.15 mg/mL.

Streptococcus mutans [2] = assay: as above; conditions: S. mutans; for MBIC in indicvdual replicates Replicate 1 / MBIC in indicvdual replicates Replicate 2 / MBIC in indicvdual replicates Replicate 3 / MBIC in indicvdual replicates Replicate 4 / MBIC in indicvdual replicates Replicate 5: 24 h incubation; for MBIC Median value: median of 5 replicates
Protocol: as §1, §2, §3, §4

Streptococcus mutans [3] = assay: Minimum inhibitory concentration (MIC), serial two-fold dilution with resazurin test; conditions: for MIC: Streptococcus mutans
Streptococcus sobrinus [4] = assay: as above; conditions: for MIC: Streptococcus sobrinus
[5] = 24 h, read-out: MIC value in individual replicate Replicate 1
[6] = 24 h, read-out: MIC value in individual replicate Replicate 2
[7] = 24 h, read-out: MIC value in individual replicate Replicate 3
[8] = 24 h, read-out: MIC value in individual replicate Replicate 4
[9] = 24 h, read-out: MIC value in individual replicate Replicate 5

Row | Molecule | MBIC in indicvdual replicates Replicate 1 (Streptococcus sobrinus [1]) [µg/mL] | MBIC in indicvdual replicates Replicate 2 (Streptococcus sobrinus [1]) [µg/mL] | MBIC in indicvdual replicates Replicate 3 (Streptococcus sobrinus [1]) [µg/mL] | MBIC in indicvdual replicates Replicate 4 (Streptococcus sobrinus [1]) [µg/mL] | MBIC in indicvdual replicates Replicate 5 (Streptococcus sobrinus [1]) [µg/mL] | MBIC Median value (Streptococcus sobrinus [1]) [µg/mL] | MBIC in indicvdual replicates Replicate 1 (Streptococcus mutans [2]) [µg/mL] | MBIC in indicvdual replicates Replicate 2 (Streptococcus mutans [2]) [µg/mL] | MBIC in indicvdual replicates Replicate 3 (Streptococcus mutans [2]) [µg/mL] | MBIC in indicvdual replicates Replicate 4 (Streptococcus mutans [2]) [µg/mL] | MBIC in indicvdual replicates Replicate 5 (Streptococcus mutans [2]) [µg/mL] | MBIC Median value (Streptococcus mutans [2]) [µg/mL] | further results
1 | N=C(NCCCCCCNC(=N)NC(=N)Nc1ccc(Cl)cc1)NC(=N)Nc1ccc(Cl)cc1 [Chlorohexidine bigluconate, chlorohexidine bigluconate] | 4.0 | 4.0 | 8.0 | 4.0 | 4.0 | 4.0 | 8.0 | 8.0 | 8.0 | 8.0 | 4.0 | 8.0 | MIC (Streptococcus mutans [3]; [5]): 8 µg/mL; MIC (Streptococcus mutans [3]; [6]): 8 µg/mL; MIC (Streptococcus mutans [3]; [7]): 8 µg/mL; MIC (Streptococcus mutans [3]; [8]): 8 µg/mL; MIC (Streptococcus mutans [3]; [9]): 8 µg/mL; MIC (Streptococcus mutans [3]; read-out: MIC Median value): 8 µg/mL; MIC (Streptococcus sobrinus [4]; [5]): 4 µg/mL; MIC (Streptococcus sobrinus [4]; [6]): 4 µg/mL; MIC (Streptococcus sobrinus [4]; [7]): 4 µg/mL; MIC (Streptococcus sobrinus [4]; [8]): 8 µg/mL; MIC (Streptococcus sobrinus [4]; [9]): 4 µg/mL; MIC (Streptococcus sobrinus [4]; read-out: MIC Median value): 4 µg/mL
2 | zinc gluconate | 5000 | 5000 | 2500 | 2500 | 2500 | 2500 | 1250 | 1250 | 600 | 600 | 600 | 600 | MIC value in individual replicate Replicate 1 (Streptococcus mutans [3]; S. mutans, 24 h at 37 °C): 600 µg/mL; MIC value in individual replicate Replicate 2 (Streptococcus mutans [3]; S. mutans, 24 h at 37 °C): 600 µg/mL; MIC value in individual replicate Replicate 3 (Streptococcus mutans [3]; S. mutans, 24 h at 37 °C): 300 µg/mL; MIC value in individual replicate Replicate 4 (Streptococcus mutans [3]; S. mutans, 24 h at 37 °C): 300 µg/mL; MIC value in individual replicate Replicate 5 (Streptococcus mutans [3]; S. mutans, 24 h at 37 °C): 300 µg/mL; MIC Median value (Streptococcus mutans [3]; S. mutans, median of 5 replicates): 300 µg/mL; MIC value in individual replicate Replicate 1 (Streptococcus sobrinus [4]; S. sobrinus, 24 h at 37 °C): 5000 µg/mL; MIC value in individual replicate Replicate 2 (Streptococcus sobrinus [4]; S. sobrinus, 24 h at 37 °C): 5000 µg/mL; MIC value in individual replicate Replicate 3 (Streptococcus sobrinus [4]; S. sobrinus, 24 h at 37 °C): 5000 µg/mL; MIC value in individual replicate Replicate 4 (Streptococcus sobrinus [4]; S. sobrinus, 24 h at 37 °C): 5000 µg/mL; MIC value in individual replicate Replicate 5 (Streptococcus sobrinus [4]; S. sobrinus, 24 h at 37 °C): 5000 µg/mL; MIC Median value (Streptococcus sobrinus [4]; S. sobrinus, median of 5 replicates): 5000 µg/mL
